Test results: PubChem BioAssay AID700 (NMMLSC, 2007)
Activity calls are given as the source filed them. How the calls were made is not given here.

tested on: bacterial quorum sensing reporter inhibition; assay: blockers of quorum-sensing reporter signal in bacteria – dose response (AID 700)

SMILES | IC50
CCc1c(C)nc(SCC(=O)Nc2ccc(Br)cc2)[nH]c1=O | > 20 µM (inactive)
O=C(NC(=O)c1cccc(F)c1)OC[C@@H]1CCCN2CCCC[C@H]12 | > 20 µM (inactive)
CCc1ccc2[nH]c(=O)c(CN(CCCN3CCOCC3)C(=O)Nc3ccc(Cl)cc3)cc2c1 | > 20 µM (inactive)
Cc1ccc(Cl)c(Nc2ccccc2C(=O)O)c1Cl | 3.13 µM
O=C(NCCN1CCN(c2ccccc2)CC1)c1cccn2c(=O)c3ccccc3nc12 | > 20 µM (inactive)
COc1ccc(NC(=O)c2c(SC)nsc2SC)cc1 | > 20 µM (inactive)
CCc1c(C)sc(NC(=O)c2cc(C)on2)c1C#N | > 20 µM (inactive)
CCN1CCCC1CN(Cc1cc2c(C)cc(C)cc2[nH]c1=O)C(=O)NC1CCCCC1 (configuration not stated) | > 20 µM (inactive)
COC(=O)c1[nH]nc2c1C(=O)N(C1CCCCC1)C2=O | 12.7 µM (inactive)
Cn1c(=O)n(CCc2ccccc2)c(=O)c2c1nc1n2CCN1Cc1ccco1 | > 20 µM (inactive)
O=C(c1ccc(Br)o1)N1CCN(c2ccc3nnc(-c4ccccc4)n3n2)CC1 | > 20 µM (inactive)
Cc1ccsc1-c1nc(CSCC(=O)N2CCN(c3ccccc3)CC2)c(C)o1 | 12.4 µM (inactive)
CCOc1ccc(NC(=O)C2CCCN(S(=O)(=O)c3c(C)nn(C)c3C)C2)cc1 (configuration not stated) | > 20 µM (inactive)
CCOC(=O)C(C)(C)Sc1nc2c(cnn2-c2ccc(C)cc2)c(=O)[nH]1 | > 20 µM (inactive)
Fc1ccc(-c2nnc3ccc(N4CCc5ccccc5C4)nn23)cc1 | > 20 µM (inactive)
CCc1ccc2[nH]c(=O)c(CN(CCCN3CCOCC3)C(=O)Nc3ccc(F)cc3)cc2c1 | > 20 µM (inactive)
O=C(OCC(O)CO)c1ccccc1Nc1ccnc2cc(Cl)ccc12 (configuration not stated) | > 20 µM (inactive)
COc1ccc(OC)c2[nH]c(=O)c(CCNC(=O)C(C)C)cc12 | > 20 µM (inactive)
CC(C)Cc1cc(C(=O)Nc2sc3c(c2C#N)CCCC3)no1 | > 20 µM (inactive)
Oc1ccc(-c2nc3ncccn3c2Nc2ccc3c(c2)OCCO3)cc1 | > 20 µM (inactive)
CC(C)N=c1cc2n(-c3ccc(Cl)cc3)c3ccccc3nc-2cc1Nc1ccc(Cl)cc1 | > 20 µM (inactive)
CC1CN(c2nc3ccccc3nc2C(C#N)C(=O)OC2CCCCC2)CC(C)O1 (configuration not stated) | > 20 µM (inactive)
CC1CCCN(C(C(=O)Nc2ccc3c(c2)OCCO3)c2ccccc2)C1 (configuration not stated) | > 20 µM (inactive)
Cc1ccc(C)c2[nH]c(=O)c(CN(CCN3CCCC3)C(=O)Nc3cccc(Cl)c3)cc12 | 8.19 µM

SMILES | IC50
CC(C)CC(NC(=O)c1ccco1)C(=O)Nc1ccc2c(c1)OCCO2 (configuration not stated) | > 20 µM (inactive)
CCOC(=O)N1CCC(NC(=O)Cn2nc(Cc3ccncc3)c3ccccc3c2=O)CC1 | 5.8 µM
Nc1c(C(O)(C(F)(F)F)C(F)(F)F)ccc2ccccc12 | > 20 µM (inactive)
COC(=O)c1ccc(CSc2nc3c(cnn3-c3ccc(Cl)cc3)c(=O)[nH]2)o1 | > 20 µM (inactive)
CCC(=O)O[C@@H]1CC(=O)O[C@H](C)CC=CC=C[C@@H](O)[C@H](C)C[C@H](CC=O)[C@H](O[C@H]2O[C@H](C)[C@@H](O[C@H]3C[C@@](C)(O)[C@@H](OC(=O)CC)[C@H](C)O3)[C@H](N(C)C)[C@H]2O)[C@H]1OC | 0.55 µM
Cn1cc(/C=N/n2cnc3sc4c(c3c2=O)CCCC4)c2ccccc21 | > 20 µM (inactive)
CCCCC(=O)Nc1cc(C)c2c(=O)oc3ccccc3c2n1 | > 20 µM (inactive)
Cc1ccc(C)c(N2CCN(C(=O)CCCCn3c(=O)[nH]c4ccccc4c3=O)CC2)c1 | > 20 µM (inactive)
CCCCOC(=O)Cn1c(=O)oc2ccc(C)cc21 | > 20 µM (inactive)
CCc1ccc(S(=O)(=O)c2n[nH]n3c2nc(=O)c2ccccc23)cc1 | 1.46 µM
O=C(CN1C(=O)CC(c2ccco2)Sc2ccccc21)Nc1ccc2c(c1)OCCO2 (configuration not stated) | > 20 µM (inactive)
O=C(Nc1nc2c(s1)CCc1ccccc1-2)c1cccs1 | > 20 µM (inactive)
c1ccc(-c2ccc(C(c3ccccc3)n3ccnc3)cc2)cc1 (configuration not stated) | > 20 µM (inactive)
COc1ccc(-c2nc(C(N)=O)c3[nH]c(=O)n(-c4cccc(Cl)c4)c3n2)cc1OC | > 20 µM (inactive)
COc1ccc(Nc2nc(-c3sc(N)nc3C)cs2)cc1 | > 20 µM (inactive)
CCn1c2ccccc2c2cc(NC(=O)CSc3nnc(C4CC4)n3Cc3ccco3)ccc21 | > 20 µM (inactive)
CCCCc1oc2ccccc2c1C(=O)c1cc(I)c(OCCN(CC)CC)c(I)c1 | > 20 µM (inactive)
COc1cc2[nH]c(=O)n(CCC(=O)N3CCN(c4cc(Cl)ccc4C)CC3)c(=O)c2cc1OC | > 20 µM (inactive)
COc1ccc(-c2oc3ncn(CCN4CCOCC4)c(=N)c3c2-c2ccc(OC)cc2)cc1 | > 20 µM (inactive)
COC(=O)C1C(=O)C2=C(CC1C)NC(C)=C(C(=O)OC1CCCCC1)C2c1ccc(N(C)C)cc1 (configuration not stated) | 9.7 µM
CCc1oc2ccccc2c1C(=O)c1cc(Br)c(O)c(Br)c1 | 0.74 µM
N#Cc1c(NC(=O)COC(=O)C2CC3C=CC2C3)oc(-c2ccccc2)c1-c1ccccc1 (configuration not stated) | 0.68 µM
O=C(NCCCc1ccccc1)c1cnc2n(c1=O)CCS2 | > 20 µM (inactive)
